Reference: PMC5063977 (The Journal of Biological Chemistry, 2016)

Key:
Type in all cases: cell-based
RAMP3-CLR (AM2 receptor) [1] = target: T1, RAMP3-CLR (AM2 receptor) (Homo sapiens, UniProt O60896+Q16602); test: S. cerevisiae growth assay, GPA1/Gαi chimera, RAMP3 + CLR; conditions: percentage of yeast strain MMY11 (lacking GPA1); 20 h; mean ± S.E., n = 7
T1 construct: FLAG; expressed in transfected cells; host or cells: HEK-293 or HEK-293S cells, transient transfection, 1:1 RAMP:CLR
Experimental: FIGURE 3. […] Reporter gene activity was determined following 20 h of stimulation.
General yeast procedures were performed as described previously ([22], [24]). The human CLR was introduced into yeast cells under the control of the PGK promoter using a plasmid containing ura3 (pDT-PGK). The three human RAMPs were introduced into yeast under the control of the GAPDH promoter using plasmids containing leu2 (p425-GPD) ([25]). S. cerevisiae dual reporter strains expressing chimeras of yeast GPA1(1–467) (GPA1/Gα) with the five C-terminal amino acids of […] human G proteins representing Gαs, Gα16, Gαq, Gαo, Gαi1/2, Gαi3, Gαz, Gα12, Gα13, and Gα14 (MMY84–MMY93) were used in this study ([52]). […] Receptor signaling was measured using the yeast growth assay as described previously ([24]). […] A fluorescein signal was detected as an increase in fluorescence (excitation wavelength = 485 nm, emission wavelength = 535 nm) as a measure of growth. Different concentrations of ligand (0.01 nM–100 μM) were assayed using 96-well plates, and fluorescence was detected using a Tecan Infinite M200 microplate reader (Tecan Ultra Evolution, Reading, UK) or a Mithras LB 940 microplate reader (Berthold Technologies, Harpenden, UK) for 20 h. […]

RAMP2-CLR (AM1 receptor) = target: T2, RAMP2-CLR (AM1 receptor) (Homo sapiens, UniProt O60895+Q16602); test: cAMP accumulation, HEK-293S cells, RAMP2 + CLR; conditions: HEK293S, untreated, percentage of maximal cAMP with 100 μM forskolin in presence of PTX, mean ± S.E., n = 5
T2 construct: FLAG; expressed in transfected cells; host or cells: HEK-293 or HEK-293S cells, transient transfection, 1:1 RAMP:CLR
T2 sequence (Q16602 23-461): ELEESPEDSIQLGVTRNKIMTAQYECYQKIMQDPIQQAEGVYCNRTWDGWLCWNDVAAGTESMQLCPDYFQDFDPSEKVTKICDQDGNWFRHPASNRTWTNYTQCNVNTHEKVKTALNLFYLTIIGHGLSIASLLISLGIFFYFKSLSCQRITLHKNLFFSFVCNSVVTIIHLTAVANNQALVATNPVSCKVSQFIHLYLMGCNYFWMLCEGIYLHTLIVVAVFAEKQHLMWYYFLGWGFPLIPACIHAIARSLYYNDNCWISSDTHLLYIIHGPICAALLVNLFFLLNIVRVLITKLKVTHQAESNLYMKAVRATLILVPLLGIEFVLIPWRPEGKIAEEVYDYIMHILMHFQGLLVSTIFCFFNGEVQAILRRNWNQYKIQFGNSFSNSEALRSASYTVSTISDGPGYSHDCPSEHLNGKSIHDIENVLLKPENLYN
T2 sequence (O60895 43-175): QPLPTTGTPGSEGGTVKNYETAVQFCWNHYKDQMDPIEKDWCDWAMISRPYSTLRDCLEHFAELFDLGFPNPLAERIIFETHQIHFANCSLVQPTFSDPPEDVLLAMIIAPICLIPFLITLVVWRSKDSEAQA
Experimental: (§1) HEK-293 cells were transfected with FuGENE 6 (Roche Applied Science) in accordance with the manufacturer's instructions using a 1:3 (w:v) DNA:FuGENE ratio and a 1:1 ratio of RAMP to CLR. […] The transfected cell lines were grown for 24–48 h prior to assaying.
(§2) The transfected HEK-293 cells were washed in PBS, resuspended in stimulation buffer (PBS containing 0.1% BSA and 0.5 mM IBMX), and seeded at 2000 cells/well in 384-well white Optiplates. Ligands were added in the range of 1 pM to 1 mM, and cAMP accumulation was measured after 30 min of stimulation using a LANCE® cAMP detection kit (PerkinElmer Life Sciences). […] Plates were read using a Mithras LB 940 multimode microplate reader (Berthold Technologies). […] Values were converted to concentration using a cAMP standard curve performed in parallel.
Data analysis for cAMP assays was performed in GraphPad Prism 6.0f (San Diego, CA). […] These values were then used to quantify signaling bias as change in log (τ/Ka) relative to the natural cognate ligand for the respective receptor ([41]). […] Statistical differences were analyzed using one-way ANOVA or Student's t test as appropriate with post hoc Bonferroni's or Dunnett's multiple comparisons, and p < 0.05 was considered significant. […] To quantitate the ligand-dependent response in the yeast system, a strain lacking GPA1 (MMY11), grown in rich medium, was used as a standard ([72]). […]

RAMP3-CLR (AM2 receptor) [2] = target: T1, RAMP3-CLR (AM2 receptor); test: cAMP accumulation, HEK-293 cells, RAMP3 + CLR; conditions: mean ± S.E.
Experimental: as §1, §2
Data analysis for cAMP assays was performed in GraphPad Prism 6.0f (San Diego, CA). Data were fitted to obtain concentration-response curves using either the three-parameter logistic equation (for pEC50 values) or the operational model for partial agonism ([34]) to obtain values of efficacy (log τ) and the equilibrium dissociation constant (log Ka). These values were then used to quantify signaling bias as change in log (τ/Ka) relative to the natural cognate ligand for the respective receptor ([41]). […] Statistical differences were analyzed using one-way ANOVA or Student's t test as appropriate with post hoc Bonferroni's or Dunnett's multiple comparisons, and p < 0.05 was considered significant. […] For RT-PCR, normalization to the internal standard GAPDH was performed to reduce variance and enable a comparison between different cell lines. To quantitate the ligand-dependent response in the yeast system, a strain lacking GPA1 (MMY11), grown in rich medium, was used as a standard ([72]). As GPA1 is not present in this strain, the Gβγ subunits are unregulated and free to signal, allowing us to determine the maximal response of our system. […] For the mammalian cell-based assays, data analysis was carried out as for the yeast curves. […]

T1 sequence (Q16602 23-461): as the sequence (Q16602 23-461) above
T1 sequence (O60896 24-148): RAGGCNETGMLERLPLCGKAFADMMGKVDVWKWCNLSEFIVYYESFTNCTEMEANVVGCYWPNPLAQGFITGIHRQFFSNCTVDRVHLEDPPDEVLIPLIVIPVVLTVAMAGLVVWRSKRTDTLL

Emax (RAMP3-CLR (AM2 receptor) [1])	Emax (RAMP2-CLR (AM1 receptor))	Emax (RAMP3-CLR (AM2 receptor) [2]; HEK293, PTX treated (200 ng/ml, 16 h), percentage of maximal cAMP with 100 μM forskolin in presence of PTX, n = 7 (Table 3))	Emax (RAMP3-CLR (AM2 receptor) [2]; HEK293, percentage of maximal cAMP with 100 μM forskolin, HEK-293, 30 min, n = 9 (Table 2))	Emax (RAMP3-CLR (AM2 receptor) [2]; HEK293, untreated, percentage of maximal cAMP with 100 μM forskolin in presence of PTX, n = 8 (Table 3))	SMILES
15.7 ± 2.1%	40.3 ± 1.5%				CSCC[C@H](NC(=O)[C@H](CC(C)C)NC(=O)[C@H](CCC(N)=O)NC(=O)[C@H](Cc1c[nH]c2ccccc12)NC(=O)[C@H](CC(C)C)NC(=O)[C@H](CCCNC(=N)N)NC(=O)[C@H](Cc1c[nH]cn1)NC(=O)[C@H](CO)NC(=O)[C@H](CC(C)C)NC(=O)[C@H](CC(N)=O)NC(=O)[C@H](CCC(N)=O)NC(=O)[C@@H](NC(=O)[C@H](CCC(N)=O)NC(=O)[C@@H]1CSSC[C@H](NC(=O)CNC(=O)[C@@H](NC(=O)[C@H](CCCNC(=N)N)NC(=O)[C@H](CC(C)C)NC(=O)[C@H](CC(C)C)NC(=O)[C@H](CCC(N)=O)NC(=O)[C@H](C)NC(=O)[C@H](CCC(N)=O)NC(=O)[C@@H](N)[C@@H](C)O)C(C)C)C(=O)N[C@@H](C(C)C)C(=O)N[C@@H](CC(C)C)C(=O)NCC(=O)N[C@@H]([C@@H](C)O)C(=O)N1)C(C)C)C(=O)NCC(=O)N1CCC[C@H]1C(=O)N[C@@H](C)C(=O)NCC(=O)N[C@@H](CCCNC(=N)N)C(=O)N[C@@H](CCC(N)=O)C(=O)N[C@@H](CC(=O)O)C(=O)N[C@@H](CO)C(=O)N[C@@H](C)C(=O)N1CCC[C@H]1C(=O)N[C@H](C(=O)N[C@@H](CC(=O)O)C(=O)N1CCC[C@H]1C(=O)N[C@@H](CO)C(=O)N[C@@H](CO)C(=O)N1CCC[C@H]1C(=O)N[C@@H](Cc1c[nH]cn1)C(=O)N[C@@H](CO)C(=O)N[C@@H](Cc1ccc(O)cc1)C(N)=O)C(C)C [AM2, adrenomedullin 2]
26.7 ± 1.8%		36 ± 2.2%	32.1 ± 1.6%	32 ± 1.5%	CC[C@H](C)[C@H](NC(=O)[C@H](CCC(N)=O)NC(=O)[C@H](Cc1c[nH]cn1)NC(=O)[C@H](C)NC(=O)[C@H](CC(C)C)NC(=O)[C@H](CCCCN)NC(=O)[C@H](CCC(N)=O)NC(=O)[C@@H](NC(=O)[C@@H](NC(=O)[C@@H]1CSSC[C@H](NC(=O)CNC(=O)[C@H](Cc2ccccc2)NC(=O)[C@H](CO)NC(=O)[C@H](CCCNC(=N)N)NC(=O)[C@H](CC(C)C)NC(=O)CNC(=O)[C@H](CCC(N)=O)NC(=O)[C@H](Cc2ccccc2)NC(=O)[C@H](CC(N)=O)NC(=O)[C@H](CC(N)=O)NC(=O)[C@H](CCSC)NC(=O)[C@H](CO)NC(=O)[C@H](CCC(N)=O)NC(=O)[C@H](CCCNC(=N)N)NC(=O)[C@@H](N)Cc2ccc(O)cc2)C(=O)N[C@@H](CCCNC(=N)N)C(=O)N[C@@H](Cc2ccccc2)C(=O)NCC(=O)N[C@@H]([C@@H](C)O)C(=O)N1)[C@@H](C)O)C(C)C)C(=O)N[C@@H](Cc1ccc(O)cc1)C(=O)N[C@@H](CCC(N)=O)C(=O)N[C@@H](Cc1ccccc1)C(=O)N[C@H](C(=O)N[C@@H](CC(=O)O)C(=O)N[C@@H](CCCCN)C(=O)N[C@@H](CC(=O)O)C(=O)N[C@@H](CCCCN)C(=O)N[C@@H](CC(=O)O)C(=O)N[C@@H](CC(N)=O)C(=O)N[C@H](C(=O)N[C@@H](C)C(=O)N1CCC[C@H]1C(=O)N[C@@H](CCCNC(=N)N)C(=O)N[C@@H](CO)C(=O)N[C@@H](CCCCN)C(=O)N[C@H](C(=O)N[C@@H](CO)C(=O)N1CCC[C@H]1C(=O)N[C@@H](CCC(N)=O)C(=O)NCC(=O)N[C@@H](Cc1ccc(O)cc1)C(N)=O)[C@@H](C)CC)C(C)C)[C@@H](C)O [AM, adrenomedullin]
